According to US12398122B2, “Resolvin analogs compounds, methods and uses thereof” (VALORISATION RECHERCHE HSCM, LIMITED PARTNERSHIP, priority 2022, dated 2025):

How the values were obtained:
[1] = system: human isolated monocytes/macrophages-RANKL/M-CSF-derived osteoclasts; assay: TRAP staining, osteoclast differentiation of RANKL/M-CSF-treated human monocytes; format: cell-based; details: 500 nM, 14 days, 50 ng/ml RANKL and 10 ng/ml M-CSF
Experimental: (§1) Murine macrophage RAW 264.7 (ATCC, Manassas, VA, USA) were cultured with AMEM/10% FBS and antibiotics at 37° C. in a humidified atmosphere with 5% CO2. Primary human monocytes were isolated from whole blood obtained from healthy volunteers. Briefly, blood was centrifuged on a Ficoll-Paque density gradient, according to the manufacturer's recommendations. Isolated monocytes were then cultured in RPMI 1640 medium supplemented with 10% FBS, and antibiotics. All donors provided written, informed consent for the use of their blood for research purposes. Experimental protocols were approved by the Research Ethics Board of the “Hôpital du Sacré-Coeur de Montreal”.
Isolated human monocytes were isolated as described previously, seeded in chambered cell culture slides at 8×10^4 cells/well, and treated with 50 ng/ml RANKL and 10 ng/ml M-CSF in the presence or absence of 500 nM of compounds I-1 and I-2 for 14 days. Culture medium was changed every 3 days. TRAP staining performed as recommended by the manufacturer. […] Results are shown in FIG. 3, where arrows show osteoclasts with three nuclei or more (b). R=RANKL; M=M-CSF.
Here, the impact of RvD1 analogues treatment on human isolated monocytes/macrophages-RANKL/M-CSF-derived osteoclasts was eveluated, by measuring their phenotypic markers, namely TRAP. […]

MMP-13 = assay: Inhibition of MMP-13 production in human OA chondrocytes; format: cell-based; details: Chondrocyte, IL-1β 1 ng/ml one hour then compound 24 hours
Experimental: The effect of RvD1 analogs on the expression of MMP-13, a key enzyme involved in the degradation of OA cartilage, was investigated. Chondrocytes from human osteoarthritic cartilage were treated with IL-1β (1 ng/ml) for one hour followed by another treatment with RvD1 and its analogues for 24 hours.

TNFα = assay: Inhibition of IL-1β-induced TNFα production in Raw264.7; format: cell-based, mouse; details: Raw264.7, 1 μM, pretreated 1 h then 1 ng/ml IL-1β for 24 h, compared to IL-1β alone
Experimental: as §1
It is well-documented that the RvD1 is considered as a potent anti-inflammatory mediator. Thus, the purpose of this part of the present study was to investigate whether compounds I-1 and I-2's capacity to inhibit pro-inflammatory cytokines, such as TNFα. To do so, Raw264.7 were pretreated with compounds I-1 and I-2 at different concentrations (0, 0.1, 0.5, and 1-μM) for 1h, followed by exposure to 1 ng/ml IL-1β for 24 h. […] As such, it may be concluded that compounds I-1 and I-2 inhibit TNFα production.

[2] = system: human monocyte-derived osteoclasts; assay: Hydroxyapatite matrix resorption by human monocyte-derived osteoclasts (von Kossa staining); format: cell-based; details: 500 nM, M-CSF/RANKL-differentiated cells, p<0.01 (n=3)
Description: The effect of RvD1 analogs on the resorption activity of human monocyte-derived osteoclasts was investigated. Results were obtained as described in Benabdoun et al. 2019 and are shown in FIG. 10, where data were expressed as % resorption area/osteoclast with three nuclei or more (n=3).

[3] = system: osteoclasts from monocytes of peripheral blood of healthy donors; assay: Osteoclast recruitment: differentiation of peripheral blood monocytes into osteoclasts (TRAP-positive cells); format: cell-based, human; details: 500 ng, 14 days, 50 ng/ml RANKL + 10 ng/ml M-CSF, 2×10^5 monocytes/chamber (n=3)
Experimental: The effect of RvD1 analogs on the differentiation of macrophages into osteoclasts was investigated. Monocytes from peripheral blood of healthy donors were cultured in culture chambers at 2×10^5 monocytes/chamber in the presence of 50 ng/ml RANKL+10 ng/ml M-CSF for 14 days, in the presence or absence of 500 ng of compounds I-1 and I-2 (n=3).

human OA chondrocytes = assay: Reactive oxygen species (ROS) production in human OA chondrocytes (DCFH-DA probe); format: cell-based; details: 1 μM, 0.5 mM H2O2 for 2 hours
Experimental: In a second step, the study was continued to explore the antioxidant effect of RvD1 and compounds I-1 and I-2 in a cell medium. Thus, human OA chondrocytes with osteoarthritis were seeded in black plates at a rate of 5×10^4 cells per well in 10% FBS DMEM medium (phenol red free) and incubated for 24 h at 37° C., and then treated with 0.5 mM H2O2 for 2 hours in the presence or absence of RvD1 and the compounds I-1 and I-2 at a concentration of 1 μM. The generation of ROS was measured by the addition of 10 μM of the DCFH-DA probe and fluorescence was measured using a microplate reader with Fluorescence Polarization (Polar Star Optima, BMG Labtech) set up at ex. 485 nm and em. 530 nm.

[4] = H2O2-induced hyaluronic acid fragmentation (agarose gel, Stains-All); details: HA 1 mg/ml, pretreated 1 hour at 1 or 10 μM, then 1 mM H2O2 for 4 hours; preliminary data
Experimental: Commercial hyaluronic acid was solubilised in sterilized PBS (1 mg/ml) during overnight under gentile shaking. The solution was pretreated with N-acetyl-Cysteine (NAC), RvD1, compounds I-1 and I-2 at 1 or 10 μM for 1 hour and then treated with 1 mM H2O2 during 4 hours. Samples were mixed in loading buffer containing 1M sucrose and loaded in 1% agarose/1× Tris-borate-EDTA (TBE) and pre-run the gel for 6 hours at 40V in 1× TBE buffer. The gel was then equilibrated with 30% ethanol in water and stained with Stains-All solution containing 0.1 mg Stains-All and 30% ethanol for overnight in the dark. Next, the gel was equilibrated in water for 1 hour and then exposed to light for destaining. Finally, hyaluronic acid was visualized using Alpha Imager under light transillumination. Results are shown in FIG. 4, where arrows show hyaluronic acid fragments (n=2), Al=I-1; A2=I-2.
This part of experiments was designed to investigate the ability of RvD1 analogues to protect hyaluronic acid against H2O2-induced degradation (antioxidant effect). To do so, the polymer at 1 mg/ml was pretreated by RvD1 and their analogues for 1 hour and then after treated with 1 mM H2O2 for 4 hours.

COX-2 [5] = assay: COX-2 expression in human OA chondrocytes by Western blot; format: cell-based; details: 10 μM, 1 hour then IL-1β 1 ng/ml for 24 hours
Experimental: Cells were seeded in 24-well flat plates at a confluence of 5×10^5 cells per well in 10% FBS DMEM medium and incubated for 24 h at 37° C. Then, the cells were treated with I-1 at different doses (0-10 μM) for 1 hour followed by a second treatment with IL-1β for 24 hours (1 ng/ml). COX-2 expression was assessed by Western blot by specific anti-COX-2 antibody.

[6] = Ultraviolet-induced hyaluronic acid (HA) degradation; details: 1 μM, HA 1 mg/ml in PBS, UV for 4 hours (n=3)
Experimental: In order to study the protective effect of RvD1 and its analogs on the stability of hyaluronic acid (HA), a solution of commercial HA was prepared in PBS at a concentration of 1 mg/ml, then exposed to Ultraviolet rays (UV) for 4 hours in the presence or absence of RvD1 and compounds I-1 and I-2 at a dose of 1 μM. 20 μg of HA were loaded into an agarose gel (1% prepared in TBE buffer). After 4 hours of migration at 40 volts, the HA was visualized after staining with Stains-All dissolved in 30% ethanol.

[7] = Reactive oxygen species (ROS) production in acellular environment (DCFH-DA probe); details: 1 μM, ROS generated with CuCl2 (1 mM) and H2O2 (1 mM) for 10 min
Experimental: ROS were generated by incubating in black 96-well plate with CuCl2 (1 mM) with H2O2 (1 mM) for 10 min. Subsequently, RvD1, I-1 and I-2 at 1 μM were added before the addition of the DCFH-DA probe.

Raw264.7 macrophages = assay: Cell viability (MTS) assay, cytotoxicity in Raw 264.7 macrophages; format: cell-based, mouse; details: Raw264.7 macrophages, 0, 0.1, 0.25, 0.5 and 1 μM, 24 h incubation
Experimental: Murine macrophage RAW 264.7 (ATCC, Manassas, VA, USA) were cultured with AMEM/10% FBS and antibiotics at 37° C. in a humidified atmosphere with 5% CO2. Primary human monocytes were isolated from whole blood obtained from healthy volunteers. Briefly, blood was centrifuged on a Ficoll-Paque density gradient, according to the manufacturer's recommendations. Isolated monocytes were then cultured in RPMI 1640 medium supplemented with 10% FBS, and antibiotics. All donors provided written, informed consent for the use of their blood for research purposes. Experimental protocols were approved by the Research Ethics Board of the “[…] du Sacré-Coeur de Montreal”. Raw264.7 cells were treated for 24 hours with increasing concentrations of compounds I-1 and I-2 (0, 0,1, 0,25, 0,5, and 1 μM). Cell viability was assessed with MTS assay kit (Promega Corporation, Madison, WI, USA), as described by the manufacturer. Absorbance was measured with the micro-ELISA Vmax photometer (Bio-Tek Instruments, Winooski, VT, USA). Cell viability was evaluated by 3-(4,5-dimethyl-thiazoyl)-2,5-diphenyl-SH-tetrazolium bromide assay. ANOVA test was performed to compare the results. Results are expressed as mean±SEM for n=3. This part of the experiment was designed to test the cytotoxic effect of compounds 1-1 and 1-2 on mouse Raw264.7 macrophages. […]

COX-2 [8] = assay: COX-2 protein expression by Western blotting in Raw264.7 macrophages; format: cell-based, mouse; details: Raw264.7 macrophages, 0, 0.25, 0.5, 1 μM for 1 hour, then 1 ng/ml IL-1β for 24 hours (n=2)
Experimental: 20 μg of total proteins of Raw264.7 macrophages lysates, treated under the indicated conditions, were loaded for discontinuous 4-12% sodium dodecyl sulfate-polyacrylamide gel electrophoresis. They were then transferred electrophoretically onto nitrocellulose membranes (Bio-Rad Laboratories, Mississauga, ON, Canada) for protein immunodetection and semi-quantitative measurement. The primary antibodies deployed were rabbit anti-COX-2 (Cayman Chemical Company) and mouse anti-β-actine (Sigma). […] Immunoreactive proteins were detected with SuperSignal blotting substrate (Pierce, Rockford, IL) and exposed to Kodak X-Omat™ film (Eastman Kodak Company, Rochester, NY).
Here, the hypothesis whether RvD1 analogues have the ability to modulate COX-2 protein expression was tested. Raw264.7 macrophages were pretreated with increasing doses of compound I-2 (0, 0.25, 0.5, 1-μM) for 1 hour and treated then after with 1 ng/ml IL-1β for 24 hours.

| Structure (SMILES) | osteoclasts differentiation (TRAP) [1] | inhibition at 20 µM (MMP-13) | reduction of TNFα level (TNFα) | erosion of the hydroxyapatite matrix (% resorption area/osteoclast) [2] | formation of osteoclasts (3 or more nuclei) [3] | generation of ROS by chondrocytes (human OA chondrocytes) | H2O2-induced hyaluronic acid fragmentation [4] | COX-2 expression (COX-2 [5]) | HA degradation by UV exposure [6] | level of ROS in acellular medium [7] | cell viability (Raw264.7 macrophages) | IL-1β-induced COX-2 protein expression (COX-2 [8]) | inhibition at 10 µM (MMP-13; 10 μM) |
| --- | --- | --- | --- | --- | --- | --- | --- | --- | --- | --- | --- | --- | --- |
| CCCCC[C@H](O)c1c(/C=C/[C@@H](O)[C@@H](O)C/C=C\CCC(=O)OC)nc(C)n1C [I-1, methyl (4Z,7S,8R,9E)-7,8-dihydroxy-10-(5-((S)-1-hydroxyhexyl)-1,2-dimethyl-1H-imidazol-4-yl)deca-4,9-dienoate] | strongly prevent osteoclasts differentiation | ~20% | 40% | significantly reduced erosion of the hydroxyapatite matrix to almost control level | inhibited the formation of large osteoclasts | significantly reduced the generation of ROS | prevent H2O2-induced fragmentation | reduces COX-2 expression | prevents HA degradation by UV exposure | level of ROS decreases | did not alter the cell viability | – | – |
| CCCCC[C@H](O)c1c(/C=C/[C@@H](O)[C@@H](O)C/C=C\CCC(=O)O)nc(C)n1C [I-2, (4Z,7S,8R,9E)-7,8-dihydroxy-10-(5-((S)-1-hydroxyhexyl)-1,2-dimethyl-1H-imidazol-4-yl)deca-4,9-dienoic acid] | strongly prevent osteoclasts differentiation | ~20% | 40% | significantly reduced erosion of the hydroxyapatite matrix to almost control level | inhibited the formation of large osteoclasts | significantly reduced the generation of ROS | prevent H2O2-induced fragmentation | – | prevents HA degradation by UV exposure | level of ROS decreases | did not alter the cell viability | reduced IL-1β-induced COX-2 protein expression | – |
| CC/C=C\C[C@H](O)/C=C/C=C\C=C\C=C\[C@@H](O)[C@@H](O)C/C=C\CCC(=O)O [RvD1, 7S,8R,17S-trihydroxy-4Z,9E, 11E,13Z,15E,19Z-docosahexaenoic acid, reference compound] | – | – | – | – | – | significantly reduced the generation of ROS | prevent H2O2-induced fragmentation | – | prevents HA degradation by UV exposure | level of ROS decreases | – | – | ~20% |
